Here are results for 2 compounds from paper PMC7673538 (PLoS Biology, 2020).

For one data set, the system named is HRV-B14. Description: microbe, parasite or virus in culture. The format is cell-based, human rhinovirus.
Data set [1] has as its system CV-B3. Description: microbe, parasite or virus in culture. Format: cell-based, coxsackievirus B3. The following applies: for EC50: Enterovirus B.
Another data set deals with EV-D68. Description: microbe, parasite or virus in culture. Format: cell-based, enterovirus D68. The following applies: for EC50: Enterovirus D.
For a further data set, the system named is HRV-A2. Nature of the data set: microbe, parasite or virus in culture. The format is cell-based, human rhinovirus.
In data set [2] the test system is representative EVs and RVs. The format is cell-based.
The next data set relates to CV-A24. Nature of the data set: microbe, parasite or virus in culture. The format is cell-based, coxsackievirus A24. Conditions: Enterovirus C, CVA24, HeLa R19, read-out: EC50 CV-A24.
A short description of data set [3]: in vitro. The following applies: human.
A short description of data set [4]: in vitro. Conditions: human. This is another data set of the same source.
For data set [5], the system named is CV-B3. Nature of the data set: microbe, parasite or virus in culture. Conditions: Enterovirus B, CVB3, BGM. Format: cell-based, coxsackievirus B3.
The nature of data set [6]: in vitro. Conditions: monkey.
In data set [7] the test system is CV-B3. Nature of the data set: microbe, parasite or virus in culture. Conditions: Enterovirus B. The format is cell-based, coxsackievirus B3.
Another data set has as its system PV-1. Description: microbe, parasite or virus in culture. The format is cell-based, poliovirus 1. Conditions: Enterovirus C, HeLa R19, read-out: EC50 PV-1.
The test system of the next data set is EV-A71. Nature of the data set: microbe, parasite or virus in culture. The format is cell-based, enterovirus A71. Conditions: Enterovirus A, EVA71, HeLa R19, read-out: EC50 EV-A71.

Read-outs that look alike come from different tables or passages of the source. Some results are limits rather than exact numbers.

In the case of (S)-fluoxetine [reference compound], the “inhibition of HRV-B14 replication (in words)” value in the data set with HRV-B14 is recorded as “inhibited”. In the data set on CV-B3 [1], the “antiviral activity against CV-B3 (in words)” value was “inhibited” and the “cross-resistance of 19d-resistant CV-B3 virus pools (in words)” value is on record as “cross-resistant”. Besides, in the data set on EV-D68, the “cross-resistance of 19d-resistant EV-D68 virus pools (in words)” value is on record as “cross-resistance” and the “inhibition of EV-D68 replication (in words)” value is on record as “inhibited”. The “inhibition of HRV-A2 replication (in words)” value with HRV-A2 is recorded as “inhibited”. The “inhibition of contemporary/clinical isolates of EV-A71, CV-A24v and EV-D68 (in words)” value in [2] was “inhibited contemporary strains of EV-D68 and some, but not all, contemporary EV-A71 strains”.
On to `COc1ccc(N(Cc2ccc(F)cc2)C(=O)c2ccccn2)cc1` [Compound 5e, N-(4-fluorobenzyl)-N-(4-methoxyphenyl)picolinamide], for which the EC50 (as a rule, the concentration that produces a half-maximal response) is above 30 µM with HRV-B14 (Human rhinovirus sp., HRVB14, HeLa R19, read-out: EC50 HRV-B14); above 30 µM in the data set on CV-A24; 6.44 µM in the data set on CV-B3 [1] (CVB3, HeLa R19, read-out: CV-B3 EC50 Average); 6.02 µM in the data set on CV-B3 [1] (CVB3, HeLa R19, read-out: CV-B3 Exp 1 EC50); 6.86 µM in the data set with CV-B3 [1] (CVB3, HeLa R19, read-out: CV-B3 Exp2 EC50); 8.87 µM in the data set on CV-B3 [1] (CVB3, HeLa R19, read-out: EC50 HelaR19 Average). Further, the EC50 stood at 8.41 µM with CV-B3 [1] (CVB3, HeLa R19, read-out: Exp 1 EC50 HelaR19); 9.32 µM in the data set on CV-B3 [1] (CVB3, HeLa R19, read-out: Exp 2 EC50 HelaR19); 10.5 ± 1.37 µM in the data set with EV-D68 (EVD68, HeLa R19, read-out: EC50 EV-D68); 11.8 µM in the data set on EV-D68 (EVD68, HeLa R19, read-out: EC50 Exp1); 9.08 µM in the data set with EV-D68 (EVD68, HeLa R19, read-out: EC50 Exp2); 17.8 µM in the data set with CV-B3 [5] (read-out: EC50 BGM Average). The EC50 in the data set with CV-B3 [5] (read-out: Exp 1 EC50 BGM) is 16.7 µM; in the data set with CV-B3 [5] (read-out: Exp 2 EC50 BGM) it was 18.9 µM; in the data set with CV-B3 [7] (CVB3, HAP1), 15.8 ± 1.65 µM; in the data set with CV-B3 [7] (CVB3, HAP1, read-out: EC50 Hap1 Average), 15.9 µM; with CV-B3 [7] (CVB3, HAP1, read-out: Exp 1 EC50 Hap1) it was 17.5 µM; with CV-B3 [7] (CVB3, HAP1, read-out: Exp 2 EC50 Hap1) it was 14.2 µM. Also, the EC50 in the data set with HRV-A2 (Human rhinovirus sp., HRVA2, HeLa R19, read-out: EC50 HRV-A2) is above 30 µM; with PV-1 it was above 30 µM; in the data set on EV-A71 it was above 30 µM. For the same compound, the “cytotoxicity (in words)” value in the data set with HeLa R19 cells is given as “no cytotoxicity”. Besides, the CC50 in the data set “in vitro [3]” (CC50) is above 100 µM; in “in vitro [3]” (CC50 Hap1 Average), above 100 µM; in the data set “in vitro [3]” (Exp 1 CC50 Hap1), above 100 µM; in “in vitro [3]” (Exp 2 CC50 Hap1) it was above 100 µM; in “in vitro [4]” (CC50 Average) it was above 30 µM; in the data set “in vitro [4]” (CC50 HelaR19 Average) it was above 100 µM. The CC50 was above 30 µM in the data set “in vitro [4]” (Exp 1 CC50); above 100 µM in the data set “in vitro [4]” (Exp 1 CC50 HelaR19); above 30 µM in “in vitro [4]” (Exp2 CC50); above 100 µM in “in vitro [4]” (Exp 2 CC50 HelaR19); above 100 µM in the data set “in vitro [6]” (CC50); above 100 µM in the data set “in vitro [6]” (CC50 BGM Average). Moreover, the CC50 in “in vitro [6]” (Exp 1 CC50 BGM) and in “in vitro [6]” (Exp 2 CC50 BGM) was above 100 µM each time.
